ChEMBL document CHEMBL1134876, “Sequence selective recognition of DNA by hairpin conjugates of a racemic seco-cyclopropaneindoline-2-benzofurancarboxamide and polyamides” (Bioorg Med Chem Lett, 2002)

What was measured:
L1210 = test: Cytotoxicity tested against L1210 (murine leukemia) cell line using MTT assay; format: functional, cell-based; details: Mus musculus
P815 = test: Cytotoxicity tested against P815 (murine mastocytoma) cell line using MTT assay; format: functional, cell-based; details: Mus musculus

Row | Structure (SMILES) | IC50 (L1210) | IC50 (P815)
1 | NCCCCNC(=O)c1nc(NC(=O)c2nc(NC(=O)CCCC(=O)Nc3ccc4oc(C(=O)N5CC(CCl)c6ccc(O)cc65)cc4c3)c[nH]2)c[nH]1 (stereo not drawn) | 6.8 µM | 52 µM
2 | NCCCCNC(=O)c1nc(NC(=O)c2cc(NC(=O)CCCC(=O)Nc3ccc4oc(C(=O)N5CC(CCl)c6ccc(O)cc65)cc4c3)c[nH]2)c[nH]1 (stereo not drawn) | 6.7 µM | 9.1 µM
3 | NCCCCNC(=O)c1cc(NC(=O)c2nc(NC(=O)CCCC(=O)Nc3ccc4oc(C(=O)N5CC(CCl)c6ccc(O)cc65)cc4c3)c[nH]2)c[nH]1 (stereo not drawn) | 45 µM | 77 µM
4 | NCCCCNC(=O)c1cc(NC(=O)c2cc(NC(=O)CCCC(=O)Nc3ccc4oc(C(=O)N5CC(CCl)c6ccc(O)cc65)cc4c3)c[nH]2)c[nH]1 (stereo not drawn) | 28 µM | 41 µM
